Patent publication US9670514B2, “Method for producing polysaccharide” (SANYO CHEMICAL INDUSTRIES, LTD., priority 2011, dated 2017)
pIC50: −log10 of the molar value.

Experiments:
arginine kinase = assay: Michaelis constant Km of uridine triphosphate synthesis using arginine kinase; type: biochemical, Toxoplasma gondii; details: uridine diphosphate as substrate, ω-phosphono-L-arginine as phosphate donor
Method: Arginine kinase aqueous solution (D4-1-3) was obtained in a similar manner as in Preparation 1, except that a “gene encoding the amino acid sequence of SEQ ID NO: 9 derived from Toxoplasma gondii” was used in place of the “gene encoding the amino acid sequence of SEQ ID NO: 1 derived from Streptococcus equisimilis”.
The tube was allowed to stand at 30° C. for 3 minutes in a constant temperature water bath. To the tube was added 100 μL of temperature-adjusted (30° C.) substrate solution [2-1] (a solution obtained by dissolving sodium uridine diphosphate to a concentration of 10 mM in buffer solution B). Thereby, enzyme reaction solution (IV-2-1) was obtained. A portion (100 μL) of (IV-2-1) was extracted immediately after preparation and at 1-minute intervals. The extracted portions were heated at 100° C. for 2 minutes to stop the enzyme reaction, and centrifuged using a centrifuge (4° C., 12,000×g, 10 min) to precipitate impurities. The supernatant (80 μL) was analyzed by HPLC, and the peak areas of uridine triphosphate were recorded.
A Hanes-Woolf plot was constructed using the calculated initial enzyme reaction velocity v, with the horizontal axis (x-axis) plotting each substrate concentration [S], and the vertical axis (y-axis) plotting the […] of the initial enzyme reaction velocity at each substrate concentration. […]

cellulose synthase = molecular target: T1, cellulose synthase (Novacetimonas hansenii, UniProt Q59167); assay: Inhibitory concentration IC50 against cellulose synthase; type: biochemical, acetic acid bacteria; details: cellulose synthase (B-3) 1.5 U/mL
T1 construct: FLAG; made in house; host or cells: Escherichia coli SURE, as in Preparation 1
T1 sequence (Q59167 whole entry): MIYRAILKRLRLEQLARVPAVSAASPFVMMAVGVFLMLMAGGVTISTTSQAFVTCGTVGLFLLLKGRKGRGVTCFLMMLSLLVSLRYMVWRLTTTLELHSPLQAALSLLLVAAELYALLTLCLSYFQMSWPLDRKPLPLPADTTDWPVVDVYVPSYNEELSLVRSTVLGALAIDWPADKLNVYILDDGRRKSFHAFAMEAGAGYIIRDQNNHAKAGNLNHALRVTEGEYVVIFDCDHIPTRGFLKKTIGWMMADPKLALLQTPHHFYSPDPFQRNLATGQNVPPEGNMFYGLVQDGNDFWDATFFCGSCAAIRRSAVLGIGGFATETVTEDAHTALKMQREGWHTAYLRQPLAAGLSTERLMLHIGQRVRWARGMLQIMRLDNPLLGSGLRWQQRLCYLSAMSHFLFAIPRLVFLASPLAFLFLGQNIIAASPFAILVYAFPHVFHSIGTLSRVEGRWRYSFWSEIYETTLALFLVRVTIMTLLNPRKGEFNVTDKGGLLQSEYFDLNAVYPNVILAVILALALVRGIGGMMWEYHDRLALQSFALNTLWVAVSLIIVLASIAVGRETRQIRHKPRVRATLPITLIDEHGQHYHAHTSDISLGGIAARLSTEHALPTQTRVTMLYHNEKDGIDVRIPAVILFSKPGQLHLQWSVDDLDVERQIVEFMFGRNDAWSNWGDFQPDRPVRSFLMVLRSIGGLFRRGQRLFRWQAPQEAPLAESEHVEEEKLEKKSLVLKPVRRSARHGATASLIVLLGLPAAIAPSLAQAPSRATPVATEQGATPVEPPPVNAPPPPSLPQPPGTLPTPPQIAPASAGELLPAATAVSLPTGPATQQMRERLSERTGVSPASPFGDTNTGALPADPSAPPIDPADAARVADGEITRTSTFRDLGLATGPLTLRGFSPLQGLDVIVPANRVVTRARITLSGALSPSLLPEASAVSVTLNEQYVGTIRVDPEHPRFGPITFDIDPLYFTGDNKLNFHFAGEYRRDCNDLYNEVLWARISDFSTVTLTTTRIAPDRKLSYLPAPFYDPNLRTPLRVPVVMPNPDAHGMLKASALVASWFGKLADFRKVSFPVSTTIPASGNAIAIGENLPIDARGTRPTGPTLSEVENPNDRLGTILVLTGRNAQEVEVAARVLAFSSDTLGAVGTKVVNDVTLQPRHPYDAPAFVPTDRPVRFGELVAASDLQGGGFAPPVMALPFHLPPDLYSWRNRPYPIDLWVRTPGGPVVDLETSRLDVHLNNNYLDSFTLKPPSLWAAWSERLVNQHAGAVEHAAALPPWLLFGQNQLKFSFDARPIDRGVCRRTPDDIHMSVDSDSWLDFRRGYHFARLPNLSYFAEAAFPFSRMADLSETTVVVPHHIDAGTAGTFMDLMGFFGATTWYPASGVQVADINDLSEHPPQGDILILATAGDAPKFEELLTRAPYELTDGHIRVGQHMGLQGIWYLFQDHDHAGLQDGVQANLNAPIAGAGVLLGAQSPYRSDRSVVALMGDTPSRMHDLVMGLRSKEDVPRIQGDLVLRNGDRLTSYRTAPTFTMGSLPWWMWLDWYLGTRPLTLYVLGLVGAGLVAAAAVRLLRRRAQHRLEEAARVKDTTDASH
Method: Hyaluronan synthase aqueous solution (B-1) obtained in Preparation 1 was dissolved to a concentration of 1.5 U/mL in 940 μL of aqueous solution 1 (50 mM phosphate buffer (pH of 7.5, 25° C.) containing 5 mM magnesium chloride and 0.05 mM sodium uridine diphosphate) in a 1.5 mL-tube. The tube was allowed to stand at 40° C. for 20 minutes in a constant temperature water bath. To the tube was added 50 μL of temperature-adjusted (40° C.) substrate solution [1-1] (a solution obtained by dissolving uridine diphosphate-glucuronic acid sodium salt and uridine diphosphate-N-acetylglucosamine both to a concentration of 20 mM in buffer solution B (50 mM phosphate buffer, pH of 7.5, 25° C.)). Thereby, enzyme reaction solution (I-1) was obtained. […] The supernatant (80 μL) was analyzed by HPLC under the following conditions, and the peak areas of hyaluronan were recorded. […]
The inhibitory concentration IC50 was measured in a similar manner as in “Measurement of the inhibitory concentration IC50 against hyaluronan synthase”, except that “cellulose synthase aqueous solution (B-3) obtained in Preparation 12” was used in place of “hyaluronan synthase aqueous solution (B-1) obtained in Preparation 1”, “substrate solution [1-3] […]
The inhibitory concentration IC50 was also determined in a similar manner, except that the amount of cellulose synthase aqueous solution (B-3) was changed from 1.5 U/mL to 45 U/mL. […]

## O=c1ccn([C@@H]2O[C@H](COP(=O)(O)OP(=O)(O)O)[C@@H](O)[C@H]2O)c(=O)[nH]1 [uridine diphosphate]
Arginine kinase
  Km: 710 µM
Cellulose synthase
  pIC50: 4.00
